Reference: paper PMC4608799, “Structural and Functional Analysis of Murine Polyomavirus Capsid Proteins Establish the Determinants of Ligand Recognition and Pathogenicity” (PLoS Pathogens, 2015)

How the values were obtained:
PTA VP1 = target: T1, PTA VP1 (Alphapolyomavirus muris, UniProt A0A247D727); test: X-ray crystal structure of complex; details: receptor-binding pocket
T1 construct: residues 33-316, homopentamer; N-terminal His-tag cut by thrombin leaving GSHM; pET15b, E. coli BL21

RA VP1 = target: T2, RA VP1 (Mouse polyomavirus (strain p16 small-plaque), UniProt P49302); test: concentration-dependent crystal soaking, electron density quantified; type: binding; details: 1.5 M ammonium sulfate (competes with the Neu5Ac carboxylate), 20 C crystals, 30 min soak
T2 construct: residues 33-316, homopentamer; N-terminal His-tag cut by thrombin leaving GSHM; pET15b, E. coli BL21

| SMILES | X-ray crystal structure of complex (PTA VP1) | concentration-dependent crystal soaking, electron density quantified (RA VP1) |
| --- | --- | --- |
| CC(=O)N[C@H]1[C@H]([C@H](O)[C@H](O)CO)O[C@@](O[C@H](CO)[C@@H](O)[C@@H]2O[C@@](O[C@H]3[C@@H](O)[C@@H](CO)O[C@@H](O[C@H]4[C@H](O)[C@@H](O)C(O)O[C@@H]4CO)[C@@H]3O)(C(=O)O)C[C@H](O)[C@H]2NC(C)=O)(C(=O)O)C[C@@H]1O (some centres unmarked) [GD3, glycan portion of GD3] | the crystal structure of PTA with the glycan portion of GD3 shows an identical binding mechanism | – |
| CC(=O)N[C@H]1[C@H](O[C@H]2[C@@H](O)[C@@H](CO)O[C@@H](O[C@H]3[C@H](O)[C@@H](O)C(O)O[C@@H]3CO)[C@@H]2O)O[C@H](CO[C@]2(C(=O)O)C[C@H](O)[C@@H](NC(C)=O)[C@H]([C@H](O)[C@H](O)CO)O2)[C@@H](O)[C@@H]1O[C@@H]1O[C@H](CO)[C@H](O)[C@H](O[C@]2(C(=O)O)C[C@H](O)[C@@H](NC(C)=O)[C@H]([C@H](O)[C@H](O)CO)O2)[C@H]1O (some centres unmarked) [DSLNT] | – | Electron density of GT1a, GD1a, and DSLNT in RA VP1 |
